{
  "source": "patent US20150148235A1",
  "about": "“HERBICIDE-RESISTANT SUNFLOWER PLANTS WITH MULTIPLE HERBICIDE RESISTANT ALLELES OF AHASL1 AND METHODS OF USE” (NIDERA S.A., priority 2013, published 2015)",
  "system": "sunflower lines (WT, A122T/A122T, A122T/P197L, P197L/P197L)",
  "assay": "Greenhouse whole-plant response to metsulfuron methyl, Example 5",
  "format": "in vivo, Helianthus annuus",
  "conditions": "14 DAT",
  "protocol": "Seeds were sown in Petri dishes and, after germination, plantlets were transplanted into 10 cm pots containing potting media consisting of equal parts of vermiculite, soil, and sand. Plants were grown in the greenhouse under natural light conditions supplemented with 400 W sodium halide lamps to provide a 16 hr daylength. Day/night temperatures were 25 and 20° C., respectively. At the V2-V4 stage (Schneiter & Miller, 1981) 20 plants of each genotype were randomly assigned to each treatment consisting of three metsulfuron methyl doses (0 or no treatment, 5 g ai/ha or a 1× rate, and 10 g ai/ha or a 2× rate). A zero-time biomass determination was also conducted. The experiment was arranged as a randomized complete block design (RCBD) with a full factorial arrangement of treatments and 20 replications (sunflower line×treatment).\nFor the zero-time dried weight determination, ten plants of each genotype were cut at the cotyledonal node on the day of herbicide application and dried at 60° C. for 48 hr. The rest of the plants were maintained for 14 days after herbicide treatment (DAT) and their height, Phytotoxicity Index (PI) and above ground dry biomass were recorded. Height was determined as the distance between the cotyledonal node and the apex of each plant. The above ground biomass data for each line was converted to biomass accumulation after application by subtracting the appropriate average zero-time biomass from each sample. Height and dry biomass were converted to a percentage of the untreated control for each line to allow direct comparisons between groups.\nThe data was subjected to an ANOVA and the means were compared by an LSD test.",
  "key": {"[1]": {"conditions": "BTSu-R1 (P197L/P197L), 1X (5 g ai./ha)"}, "[2]": {"conditions": "BTSu-R1 (P197L/P197L), 2X (10 g ai./ha)"}, "[3]": {"conditions": "GM40 (A122T/A122T), 1X (5 g ai./ha)"}, "[4]": {"conditions": "GM40 (A122T/A122T), 2X (10 g ai./ha)"}, "[5]": {"conditions": "GM1606 (A122T/A122T), 1X (5 g ai./ha)"}, "[6]": {"conditions": "GM1606 (A122T/A122T), 2X (10 g ai./ha)"}, "[7]": {"conditions": "L4 (A122T/A122T), 1X (5 g ai./ha)"}, "[8]": {"conditions": "L4 (A122T/A122T), 2X (10 g ai./ha)"}, "[9]": {"conditions": "cmsGM40xBTSu-R1 (A122T/P197L), 1X (5 g ai./ha)"}, "[10]": {"conditions": "cmsGM40xBTSu-R1 (A122T/P197L), 2X (10 g ai./ha)"}, "[11]": {"conditions": "cmsGM40xL4 (A122T/A122T), 1X (5 g ai./ha)"}, "[12]": {"conditions": "cmsGM40xL4 (A122T/A122T), 2X (10 g ai./ha)"}},
  "note": "“And” between values parts separate entries of the source, which are not always exact repeats. Equal values may be shown once. Marks after values point to notes of the source that are not given here.",
  "data": [
    {"smiles": "COC(=O)c1ccccc1S(=O)(=O)NC(=O)Nc1nc(C)nc(OC)n1", "note": "[metsulfuron]", "values": [
      {"measurement": "Dry Matter accumulation (DMA)", "setting": "B770 (WT), 1X (5 g ai./ha)", "result": "28.43^b %"},
      {"measurement": "Phytotoxicity Index (PI) (scale 0-9)", "setting": "B770 (WT), 1X (5 g ai./ha)", "result": "8.50^bc"},
      {"measurement": "Dry Matter accumulation (DMA)", "setting": "B770 (WT), 2X (10 g ai./ha)", "result": "28.77^b %"},
      {"measurement": "Mean Height Reduction (PH)", "setting": "B770 (WT), 2X (10 g ai./ha)", "result": "18.20^a %"},
      {"measurement": "Phytotoxicity Index (PI) (scale 0-9)", "setting": "B770 (WT), 2X (10 g ai./ha)", "result": "9.00^d"},
      {"measurement": "Dry Matter accumulation (DMA)", "setting": "[1]", "result": "88% and 88.1% and 88.10^d %"},
      {"measurement": "Mean Height Reduction (PH)", "setting": "[1]", "result": "79.01^b %"},
      {"measurement": "Dry Matter accumulation (DMA)", "setting": "[2]", "result": "77% and 76.69^c %"},
      {"measurement": "Mean Height Reduction (PH)", "setting": "[2]", "result": "80.85^c %"},
      {"measurement": "Dry Matter accumulation (DMA)", "setting": "[3]", "result": "25.73^ab %"},
      {"measurement": "Mean Height Reduction (PH)", "setting": "[3]", "result": "21.39^a %"},
      {"measurement": "Phytotoxicity Index (PI) (scale 0-9)", "setting": "[3]", "result": "9.00^d"},
      {"measurement": "Dry Matter accumulation (DMA)", "setting": "[4]", "result": "20.69^a %"},
      {"measurement": "Mean Height Reduction (PH)", "setting": "[4]", "result": "21.17^a %"},
      {"measurement": "Phytotoxicity Index (PI) (scale 0-9)", "setting": "[4]", "result": "9.00^d"},
      {"measurement": "Dry Matter accumulation (DMA)", "setting": "[5]", "result": "30.39^b %"},
      {"measurement": "Mean Height Reduction (PH)", "setting": "[5]", "result": "21.55^a %"},
      {"measurement": "Phytotoxicity Index (PI) (scale 0-9)", "setting": "[5]", "result": "8.70^d"},
      {"measurement": "Dry Matter accumulation (DMA)", "setting": "[6]", "result": "20.45^a %"},
      {"measurement": "Mean Height Reduction (PH)", "setting": "[6]", "result": "21.70^a %"},
      {"measurement": "Phytotoxicity Index (PI) (scale 0-9)", "setting": "[6]", "result": "9.00^d"},
      {"measurement": "Dry Matter accumulation (DMA)", "setting": "[7]", "result": "25.40^ab %"},
      {"measurement": "Mean Height Reduction (PH)", "setting": "[7]", "result": "19.47^a %"},
      {"measurement": "Phytotoxicity Index (PI) (scale 0-9)", "setting": "[7]", "result": "8.25^b"},
      {"measurement": "Dry Matter accumulation (DMA)", "setting": "[8]", "result": "18.80^a %"},
      {"measurement": "Mean Height Reduction (PH)", "setting": "[8]", "result": "18.73^a %"},
      {"measurement": "Phytotoxicity Index (PI) (scale 0-9)", "setting": "[8]", "result": "8.5^c"},
      {"measurement": "Dry Matter accumulation (DMA)", "setting": "[9]", "result": "74.4% and 74.36^c %"},
      {"measurement": "Mean Height Reduction (PH)", "setting": "[9]", "result": "77.04^b %"},
      {"measurement": "Phytotoxicity Index (PI) (scale 0-9)", "setting": "[9]", "result": "0.00^a"},
      {"measurement": "Dry Matter accumulation (DMA)", "setting": "[10]", "result": "72.66^c %"},
      {"measurement": "Mean Height Reduction (PH)", "setting": "[10]", "result": "62% and 61.99^b %"},
      {"measurement": "Dry Matter accumulation (DMA)", "setting": "[11]", "result": "19.90^a %"},
      {"measurement": "Mean Height Reduction (PH)", "setting": "[11]", "result": "22.45^a %"},
      {"measurement": "Phytotoxicity Index (PI) (scale 0-9)", "setting": "[11]", "result": "8.67 ^d"},
      {"measurement": "Dry Matter accumulation (DMA)", "setting": "[12]", "result": "18.23^a %"},
      {"measurement": "Mean Height Reduction (PH)", "setting": "[12]", "result": "20.56^a %"},
      {"measurement": "Phytotoxicity Index (PI) (scale 0-9)", "setting": "[12]", "result": "8.82^cd"}
    ]}
  ]
}
